Assays:
[1] = Antiproliferative activity against human HI975-TM cells harboring EGFR L858R/T790M/C797S mutant assessed as inhibition of cell growth incubated for 72 hrs by CCK-8 assay; assay type: functional, cell-based; details: H1975-TM
[2] = target: Protein cereblon/Epidermal growth factor receptor (Homo sapiens, UniProt P00533+Q96SW2, T790M/C797S/L858R); assay: PROTAC activity at CRBN/EGFR L858R/T790M/C797S mutant in human H1975-TM cells assessed as induction of EGFR degradation incubated for 24 hrs by Western blot analysis; assay type: cell-based
[3] = test system: Protein cereblon/Epidermal growth factor receptor (Homo sapiens), P00533+Q96SW2 [L858R,T790M,C797S]; assay: PROTAC activity at CRBN/EGFR L858R/T790M/C797S mutant in human H1975-TM cells assessed as induction of EGFR degradation by measuring maximal efficacy at 300 nM incubated for 24 hrs by Western blot analysis relative to control; assay type: cell-based
[4] = target: Epidermal growth factor receptor (Homo sapiens, UniProt P00533, C797S/L858R/T790M); assay: Binding affinity to EGFR L858R/T790M/C797S mutant (unknown origin) assessed as dissociation constant incubated for 10 mins under dark condition by MST analysis
[5] = test system: Protein cereblon/Epidermal growth factor receptor (Homo sapiens), P00533+Q96SW2 [L858R,T790M,C797S]; assay: PROTAC activity at CRBN/EGFR L858R/T790M/C797S mutant in human H1975-TM cells assessed as induction of EGFR degradation by measuring remaining activity at 100 nM incubated for 24 hrs by Western blot analysis (reference value: 100%); assay type: cell-based
[6] = target: Protein cereblon/Epidermal growth factor receptor (Homo sapiens, UniProt P00533+Q96SW2, T790M/L858R); assay: PROTAC activity at CRBN/EGFR L858R/T790M double mutant in human NCI-H1975 cells assessed as induction of EGFR degradation; assay type: cell-based
[7] = Antiproliferative activity against human PC-9-TM cells harboring EGFR exon 19 deletion/T790M/[…] mutant assessed as inhibition of cell proliferation incubated for 72 hrs by CCK8 assay; assay type: functional, cell-based
A549 = assay: Antiproliferative activity against human A549 cells harboring wildtype EGFR assessed as inhibition of cell proliferation incubated for 72 hrs by CCK8 assay; assay type: functional, cell-based; details: A549, 72 h
PC-9 = assay: Antiproliferative activity against human PC-9 cells harboring EGFR exon 19 deletion mutant assessed as inhibition of cell proliferation incubated for 72 hrs by CCK8 assay; assay type: functional, cell-based; details: PC-9, 72 h
NCI-H1975 = assay: Antiproliferative activity against human NCI-H1975 cells harboring EGFR L858R/T790M mutant assessed as inhibition of cell proliferation incubated for 72 hrs by CCK8 assay; assay type: functional, cell-based; details: NCI-H1975, 72 h
[8] = test system: Protein cereblon/Epidermal growth factor receptor (Homo sapiens), P00533+Q96SW2 [L858R,T790M,C797S]; assay: Induction of EGFR L858R/T790M/C797S mutant in human H1975-TM cells assessed as remaining activity at 1 uM incubated for 6 hrs by Western blot analysis (reference value: 100%); assay type: cell-based
[9] = target: von Hippel-Lindau disease tumor suppressor/Epidermal growth factor receptor (Homo sapiens, UniProt P00533+P40337, L858R); assay: PROTAC activity at VHL/EGFR L858R mutant in human NCI-H3255 cells assessed as induction of EGFR degradation incubated for 24 hrs by immunoblotting analysis; assay type: cell-based
Chain of von Hippel-Lindau disease tumor suppressor/Epidermal growth factor receptor (P00533 25-1210 L858R limits assumed, stated change not applied): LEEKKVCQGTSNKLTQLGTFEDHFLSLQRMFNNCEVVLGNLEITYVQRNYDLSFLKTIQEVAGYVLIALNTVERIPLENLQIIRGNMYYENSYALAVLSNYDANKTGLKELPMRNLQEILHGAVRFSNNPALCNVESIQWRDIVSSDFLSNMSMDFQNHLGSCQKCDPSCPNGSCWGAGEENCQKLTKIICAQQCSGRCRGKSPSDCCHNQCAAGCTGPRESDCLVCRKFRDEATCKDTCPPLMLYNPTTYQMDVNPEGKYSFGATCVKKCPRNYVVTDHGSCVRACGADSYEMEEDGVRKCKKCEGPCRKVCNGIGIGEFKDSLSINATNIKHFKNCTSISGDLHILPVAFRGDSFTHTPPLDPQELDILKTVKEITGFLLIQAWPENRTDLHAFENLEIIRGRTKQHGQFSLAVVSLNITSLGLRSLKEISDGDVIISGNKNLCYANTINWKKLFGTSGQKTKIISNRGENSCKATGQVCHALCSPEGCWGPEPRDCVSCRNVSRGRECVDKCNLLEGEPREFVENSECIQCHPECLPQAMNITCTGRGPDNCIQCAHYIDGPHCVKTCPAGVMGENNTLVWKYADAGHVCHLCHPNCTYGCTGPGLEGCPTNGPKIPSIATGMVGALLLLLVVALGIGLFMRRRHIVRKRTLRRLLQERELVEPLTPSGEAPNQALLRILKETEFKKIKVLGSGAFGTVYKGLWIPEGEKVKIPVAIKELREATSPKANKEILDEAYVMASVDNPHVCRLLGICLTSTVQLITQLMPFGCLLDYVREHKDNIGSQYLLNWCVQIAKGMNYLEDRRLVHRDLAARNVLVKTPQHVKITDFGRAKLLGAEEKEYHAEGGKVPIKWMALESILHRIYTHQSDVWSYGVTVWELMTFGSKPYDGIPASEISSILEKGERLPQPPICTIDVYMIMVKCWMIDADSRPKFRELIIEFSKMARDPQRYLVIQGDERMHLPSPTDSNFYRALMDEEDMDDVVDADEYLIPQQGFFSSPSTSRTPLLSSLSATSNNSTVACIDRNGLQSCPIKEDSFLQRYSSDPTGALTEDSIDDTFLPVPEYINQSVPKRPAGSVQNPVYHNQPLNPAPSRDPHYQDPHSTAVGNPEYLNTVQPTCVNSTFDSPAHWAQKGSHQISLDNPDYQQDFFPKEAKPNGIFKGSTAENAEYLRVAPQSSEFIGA
Chain of von Hippel-Lindau disease tumor suppressor/Epidermal growth factor receptor (P40337 whole entry, stated change not applied): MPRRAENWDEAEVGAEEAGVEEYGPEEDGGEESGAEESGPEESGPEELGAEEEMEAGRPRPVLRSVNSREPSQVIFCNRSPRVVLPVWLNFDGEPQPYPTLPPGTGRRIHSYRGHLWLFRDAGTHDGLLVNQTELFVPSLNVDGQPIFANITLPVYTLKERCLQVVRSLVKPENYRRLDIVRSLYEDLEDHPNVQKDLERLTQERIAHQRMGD

Chain of Protein cereblon/Epidermal growth factor receptor (Homo sapiens, UniProt P00533+Q96SW2, T790M/C797S/L858R) (P00533 25-1210 T790M/C797S/L858R limits assumed, stated change not applied): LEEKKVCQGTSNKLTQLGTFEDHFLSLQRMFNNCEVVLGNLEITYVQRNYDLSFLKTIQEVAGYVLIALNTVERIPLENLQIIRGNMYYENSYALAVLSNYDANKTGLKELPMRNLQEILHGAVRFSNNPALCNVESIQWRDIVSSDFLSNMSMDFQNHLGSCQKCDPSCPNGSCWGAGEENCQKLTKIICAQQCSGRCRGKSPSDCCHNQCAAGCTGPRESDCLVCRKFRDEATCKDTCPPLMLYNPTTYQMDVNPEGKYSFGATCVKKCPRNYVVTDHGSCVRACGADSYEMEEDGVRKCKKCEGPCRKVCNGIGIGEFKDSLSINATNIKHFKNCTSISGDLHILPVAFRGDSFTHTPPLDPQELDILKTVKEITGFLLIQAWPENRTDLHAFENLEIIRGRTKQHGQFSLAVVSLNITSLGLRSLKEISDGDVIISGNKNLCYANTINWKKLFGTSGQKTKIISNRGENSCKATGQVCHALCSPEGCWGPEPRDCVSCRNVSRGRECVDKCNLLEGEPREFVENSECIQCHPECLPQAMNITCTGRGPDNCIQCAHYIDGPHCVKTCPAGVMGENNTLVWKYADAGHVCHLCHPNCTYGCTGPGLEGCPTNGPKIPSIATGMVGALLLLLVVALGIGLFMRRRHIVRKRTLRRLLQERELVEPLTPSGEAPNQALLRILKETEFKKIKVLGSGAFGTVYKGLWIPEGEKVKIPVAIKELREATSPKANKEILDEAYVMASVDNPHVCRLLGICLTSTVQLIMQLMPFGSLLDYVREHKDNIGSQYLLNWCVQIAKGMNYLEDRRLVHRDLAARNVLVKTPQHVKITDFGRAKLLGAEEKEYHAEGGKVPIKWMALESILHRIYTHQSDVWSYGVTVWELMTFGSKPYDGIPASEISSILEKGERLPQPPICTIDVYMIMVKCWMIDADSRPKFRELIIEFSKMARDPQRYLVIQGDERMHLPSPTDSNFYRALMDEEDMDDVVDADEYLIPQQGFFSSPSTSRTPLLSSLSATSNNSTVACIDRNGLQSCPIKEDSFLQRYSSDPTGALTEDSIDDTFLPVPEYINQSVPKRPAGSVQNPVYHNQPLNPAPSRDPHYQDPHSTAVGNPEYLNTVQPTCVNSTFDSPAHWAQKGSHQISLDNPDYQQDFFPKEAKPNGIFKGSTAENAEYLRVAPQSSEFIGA
Chain of Protein cereblon/Epidermal growth factor receptor (Homo sapiens, UniProt P00533+Q96SW2, T790M/C797S/L858R) (Q96SW2 whole entry, stated change not applied): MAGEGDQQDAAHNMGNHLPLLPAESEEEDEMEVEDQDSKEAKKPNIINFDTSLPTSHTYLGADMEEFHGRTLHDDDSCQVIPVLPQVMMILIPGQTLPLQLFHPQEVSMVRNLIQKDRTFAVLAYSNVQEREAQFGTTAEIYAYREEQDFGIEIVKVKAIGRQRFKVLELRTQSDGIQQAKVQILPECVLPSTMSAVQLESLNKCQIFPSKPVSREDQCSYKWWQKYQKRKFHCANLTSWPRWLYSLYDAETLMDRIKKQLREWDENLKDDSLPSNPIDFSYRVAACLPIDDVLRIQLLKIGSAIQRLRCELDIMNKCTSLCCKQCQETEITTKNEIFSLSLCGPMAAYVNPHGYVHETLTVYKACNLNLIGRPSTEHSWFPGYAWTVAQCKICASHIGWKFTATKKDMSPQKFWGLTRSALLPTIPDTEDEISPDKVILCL
Chain of Protein cereblon/Epidermal growth factor receptor (Homo sapiens, UniProt P00533+Q96SW2, T790M/L858R) (P00533 25-1210 T790M/L858R limits assumed, stated change not applied): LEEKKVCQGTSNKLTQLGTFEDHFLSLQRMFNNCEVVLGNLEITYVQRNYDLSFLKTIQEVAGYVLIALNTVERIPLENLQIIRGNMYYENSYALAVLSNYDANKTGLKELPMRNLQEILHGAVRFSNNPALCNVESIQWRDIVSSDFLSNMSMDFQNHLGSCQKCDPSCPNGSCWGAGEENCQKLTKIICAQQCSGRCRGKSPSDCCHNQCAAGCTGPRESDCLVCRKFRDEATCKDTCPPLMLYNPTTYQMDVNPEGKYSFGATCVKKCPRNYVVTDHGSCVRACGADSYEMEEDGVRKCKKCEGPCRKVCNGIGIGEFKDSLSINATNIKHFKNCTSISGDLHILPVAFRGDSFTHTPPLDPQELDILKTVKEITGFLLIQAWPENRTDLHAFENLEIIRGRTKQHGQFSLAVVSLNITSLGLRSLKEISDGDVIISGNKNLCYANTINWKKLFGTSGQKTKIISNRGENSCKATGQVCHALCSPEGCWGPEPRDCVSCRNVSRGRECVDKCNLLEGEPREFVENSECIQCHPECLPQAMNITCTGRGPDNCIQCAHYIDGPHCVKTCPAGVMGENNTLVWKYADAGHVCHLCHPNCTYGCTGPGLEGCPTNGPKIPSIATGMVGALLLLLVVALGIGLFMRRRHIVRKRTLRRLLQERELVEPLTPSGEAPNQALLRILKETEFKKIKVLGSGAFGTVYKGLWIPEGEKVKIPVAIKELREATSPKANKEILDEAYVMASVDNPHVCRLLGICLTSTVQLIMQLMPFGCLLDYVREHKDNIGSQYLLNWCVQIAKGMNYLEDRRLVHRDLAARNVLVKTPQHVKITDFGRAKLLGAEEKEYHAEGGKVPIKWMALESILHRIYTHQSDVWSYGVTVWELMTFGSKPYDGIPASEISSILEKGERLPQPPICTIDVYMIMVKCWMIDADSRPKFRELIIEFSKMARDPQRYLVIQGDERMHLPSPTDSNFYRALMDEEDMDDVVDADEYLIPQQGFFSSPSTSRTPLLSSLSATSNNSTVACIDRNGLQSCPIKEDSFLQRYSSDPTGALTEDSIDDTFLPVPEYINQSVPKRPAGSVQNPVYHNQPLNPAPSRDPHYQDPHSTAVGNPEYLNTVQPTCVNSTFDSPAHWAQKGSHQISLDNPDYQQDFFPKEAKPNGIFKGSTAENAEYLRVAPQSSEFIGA
Chain of Protein cereblon/Epidermal growth factor receptor (Homo sapiens, UniProt P00533+Q96SW2, T790M/L858R) (Q96SW2 whole entry, stated change not applied): as the sequence (Q96SW2 whole entry, stated change not applied) above

SMILES | IC50 [1] | DC50 [2] | Emax [3] | other results
C=CC(=O)Nc1cc(Nc2nccc(-c3cn(C)c4ccccc34)n2)c(OC)cc1N(C)CCN(C)C [OSIMERTINIB] | 2240 nM | – | – | –
CCS(=O)(=O)n1cc(-c2nc(Nc3ccc(N4CCN(C(=O)CCCCCCC(=O)Nc5cccc6c5CN(C5CCC(=O)NC5=O)C6=O)CC4)cc3)ncc2C(F)(F)F)c2ccccc21 (stereo not drawn) | 278 nM | 159 nM | 85.9% | –
CCS(=O)(=O)n1cc(-c2nc(Nc3ccc(N4CCN(C(=O)CCCCCC(=O)Nc5cccc6c5CN(C5CCC(=O)NC5=O)C6=O)CC4)cc3)ncc2C(F)(F)F)c2ccccc21 (stereo not drawn) | 197 nM | 162 nM | 80.1% | –
CCS(=O)(=O)n1cc(-c2nc(Nc3ccc(N4CCN(CCOCCOCC(=O)Nc5cccc6c5CN(C5CCC(=O)NC5=O)C6=O)CC4)cc3)ncc2C(F)(F)F)c2ccccc21 (stereo not drawn) | 34.7 nM | 25.3 nM | > 95% | –
CCS(=O)(=O)n1cc(-c2nc(Nc3ccc(N4CCN(CCCCCC(=O)Nc5cccc6c5CN(C5CCC(=O)NC5=O)C6=O)CC4)cc3)ncc2C(F)(F)F)c2ccccc21 (stereo not drawn) | 62.9 nM | 59.4 nM | 94.6% | –
CCS(=O)(=O)n1cc(-c2nc(Nc3ccc(N4CCN(CCCCCCCCC(=O)Nc5cccc6c5CN(C5CCC(=O)NC5=O)C6=O)CC4)cc3)ncc2C(F)(F)F)c2ccccc21 (stereo not drawn) | 45.4 nM | 33.2 nM | > 95% | –
CCS(=O)(=O)n1cc(-c2nc(Nc3ccc(N4CCN(CCCC(=O)Nc5cccc6c5CN(C5CCC(=O)NC5=O)C6=O)CC4)cc3)ncc2C(F)(F)F)c2ccccc21 (stereo not drawn) | 62.7 nM | 49.7 nM | > 95% | –
CCS(=O)(=O)n1cc(-c2nc(Nc3ccc(N4CCN(C(=O)CCCCC(=O)Nc5cccc6c5CN(C5CCC(=O)NC5=O)C6=O)CC4)cc3)ncc2C(F)(F)F)c2ccccc21 (stereo not drawn) | 188 nM | > 300 nM | 48.3% | –
CCS(=O)(=O)N1C=C(c2nc(Nc3ccc(N4CCN(CCCCC(=O)Nc5cccc6c5CN(C5CCC(=O)NC5=O)C6=O)CC4)cc3)ncc2C(F)(F)F)C2CC=CC=C21 (stereo not drawn) | 93.5 nM | – | > 95% | –
CCS(=O)(=O)n1cc(-c2nc(Nc3ccc(N4CCN(C(=O)CCC(=O)Nc5cccc6c5CN(C5CCC(=O)NC5=O)C6=O)CC4)cc3)ncc2C(F)(F)F)c2ccccc21 (stereo not drawn) | 419 nM | 180 nM | 88.4% | –
CCS(=O)(=O)n1cc(-c2nc(Nc3ccc(N4CCNCC4)cc3)ncc2C(F)(F)F)c2ccccc21 | – | – | – | Kd [4]: 47.9 nM; Activity [5]: 106%
CCS(=O)(=O)n1cc(-c2nc(Nc3ccc(N4CCN(CCCCC(=O)Nc5cccc6c5CN(C5CCC(=O)NC5=O)C6=O)CC4)cc3)ncc2C(F)(F)F)c2ccccc21 (stereo not drawn) | – | 82.5 nM | – | –
O=C1CCC(N2C(=O)c3cccc(NCCOCCOCCOCCN4CCN(c5ccc(-c6ccc7c(c6)C(=O)N(C(C(=O)Nc6nccs6)c6ccccc6)C7)cn5)CC4)c3C2=O)C(=O)N1 (stereo not drawn) | – | – | – | DC50 [6]: 5.9 nM
CCS(=O)(=O)n1cc(-c2nc(Nc3ccc(N4CCN(CCCCCCCCCC(=O)Nc5cccc6c5CN(C5CCC(=O)NC5=O)C6=O)CC4)cc3)ncc2C(F)(F)F)c2ccccc21 (stereo not drawn) | 48.6 nM | 68.7 nM | 80.6% | –
CCS(=O)(=O)n1cc(-c2nc(Nc3ccc4c(ccn4CCN(C)C)c3)ncc2C(F)(F)F)c2ccccc21 | 16.3 nM | – | – | –
CCS(=O)(=O)n1cc(-c2nc(Nc3ccc(N4CCN(CC(=O)Nc5cccc6c5CN(C5CCC(=O)NC5=O)C6=O)CC4)cc3)ncc2C(F)(F)F)c2ccccc21 (stereo not drawn) | 88.7 nM | 30.1 nM | 89.3% | –
CCS(=O)(=O)n1cc(-c2nc(Nc3ccc(N4CCN(CCC(=O)Nc5cccc6c5CN(C5CCC(=O)NC5=O)C6=O)CC4)cc3)ncc2C(F)(F)F)c2ccccc21 (stereo not drawn) | 59.9 nM | 26.1 nM | 94.7% | –
CCS(=O)(=O)n1cc(-c2nc(Nc3ccc(N4CCN(C(=O)CCCC(=O)Nc5cccc6c5CN(C5CCC(=O)NC5=O)C6=O)CC4)cc3)ncc2C(F)(F)F)c2ccccc21 (stereo not drawn) | 198 nM | 153 nM | 80.4% | –
COc1cc(N2CCC(N3CCN(C)CC3)CC2)ccc1Nc1ncc(Cl)c(Nc2ccccc2P(C)(C)=O)n1 [BRIGATINIB] | 562 nM | – | – | IC50 [7]: 404 nM; IC50 (A549): 911 nM; IC50 (PC-9): 110 nM; IC50 (NCI-H1975): 444 nM
CCS(=O)(=O)n1cc(-c2nc(Nc3ccc(N4CCN(CCCCCCC(=O)Nc5cccc6c5CN(C5CCC(=O)N(C)C5=O)C6=O)CC4)cc3)ncc2C(F)(F)F)c2ccccc21 (stereo not drawn) | – | – | – | Activity [5]: 97.7%
CC(C)C[C@@H](C=O)NC(=O)[C@H](CC(C)C)NC(=O)[C@H](CC(C)C)NC(=O)OCc1ccccc1 | – | – | – | Activity [8]: 80.3%
CCS(=O)(=O)n1cc(-c2nc(Nc3ccc(N4CCN(CCCCCCCC(=O)Nc5cccc6c5CN(C5CCC(=O)NC5=O)C6=O)CC4)cc3)ncc2C(F)(F)F)c2ccccc21 (stereo not drawn) | 34.2 nM | 17 nM | > 95% | –
COc1cc2ncnc(Nc3ccc(F)c(Cl)c3)c2cc1OCCCCCOCCOCCC(=O)N[C@H](C(=O)N1C[C@H](O)C[C@H]1C(=O)NCc1ccc(-c2scnc2C)cc1)C(C)(C)C | – | – | – | DC50 [9]: 39 nM
CCS(=O)(=O)n1cc(-c2nc(Nc3ccc(N4CCN(CCCCCCCCCCC(=O)Nc5cccc6c5CN(C5CCC(=O)NC5=O)C6=O)CC4)cc3)ncc2C(F)(F)F)c2ccccc21 (stereo not drawn) | 161 nM | 281 nM | 77.3% | –
